According to ChEMBL document CHEMBL1154198, “Chemical genetics of Plasmodium falciparum” (Nature, 2010):

Tests used:
Plasmodium falciparum [1] = assay: ST_JUDE: Plasmodium falciparum 3D7 EC50 (uM) as measured by SYBR green dye; type: functional, organism-based
Plasmodium falciparum [2] = assay: ST_JUDE: Plasmodium falciparum K1 EC50 (uM) as measured by SYBR green dye; type: functional, organism-based

Structure (SMILES)	EC50 (Plasmodium falciparum [1])	EC50 (Plasmodium falciparum [2])
Cc1cc(Nc2ccc(C)c(F)c2)n2ncnc2n1	> 15 µM	> 15 µM
O=C(CSc1nc(-c2ccccc2Cl)ns1)Nc1cccc(Cl)c1	1.39 µM	1.7 µM
C=CCOc1ccc(C(=O)Nc2nonc2-c2ccc(OC)c(OC)c2)cc1	0.591 µM	0.689 µM
CCCCN(CCCC)C(=O)Cn1ccc(=N)c2ccccc21	> 15 µM	> 15 µM
COc1cccc(C(=O)NCc2nnc(S)n2-c2ccc(Cl)c(Cl)c2)c1	0.0928 µM	0.0463 µM
CCN1/C(=C/c2cccc[n+]2C)Sc2ccccc21	4.47 µM	> 15 µM
COc1cc(Cl)c(C)cc1NC(=O)C1c2ccccc2C(=O)N(CC(C)C)C1c1cccs1 (stereo not given)	0.166 µM	0.226 µM
C=CC[n+]1c(C=C2C=CC=CN2C)sc2ccccc21	1.52 µM	0.879 µM
Cc1onc(-c2ccccc2Cl)c1C(=O)Nc1cc(Cl)ccc1Cl	> 15 µM	> 15 µM
CC(C)CCNCC(O)Cn1c2ccc(Br)cc2c2cc(Br)ccc21 (stereo not given)	0.492 µM	0.149 µM
CC[N+](CC)(CC)CCCOC1CC(C)CCC1C(C)C (stereo not given)	> 15 µM	4.65 µM
O=S(=O)(NCC(c1cccnc1)N1CCN(c2ccc(F)cc2)CC1)c1ccc(Cl)cc1 (stereo not given)	> 15 µM	> 15 µM
CCOC(=O)C(NC(C)=O)(Nc1ccc(S(=O)(=O)Nc2cc(C)on2)cc1)C(F)(F)F (stereo not given)	2.04 µM	4.56 µM
COC(CNC(=O)c1ccc(-n2c(C)cc3c2CCCC3)cc1)OC	> 15 µM	> 15 µM
C[N+]1(CCCCCCCCCCCO)CCCCC1	> 15 µM	> 15 µM
COc1ccc(-c2cc(=O)oc3c(OC)c(OC)ccc23)cc1	> 15 µM	> 15 µM
CCN1/C(=C/c2sc3ccccc3[n+]2CCO)C=Cc2cc(OC)ccc21	1.07 µM	0.571 µM
COc1ccc2c(c1)CN(Cc1ccc(F)cc1)CO2	2.13 µM	0.372 µM
CN(C)CCCNC(=O)c1cc(-c2ccc(Cl)s2)nc2ccccc12	> 15 µM	> 15 µM
CN1C(=O)/C(=C\c2cccc(Cl)c2)Sc2ccc(C(=O)NC3CCN(Cc4ccccc4)CC3)cc21	0.657 µM	> 15 µM
CCOC(=O)c1c(N)n(-c2ccc(F)cc2)c2nc3ccccc3nc12	2.48 µM	> 15 µM
CCCCC(O)(c1ccc(CC)cc1)C(CN1CCOCC1)c1ccccc1 (stereo not given)	3.9 µM	3.44 µM

Structure (SMILES)	EC50 (Plasmodium falciparum [1])	EC50 (Plasmodium falciparum [2])
C#CCSc1c(CCCC)cnc2c1c(=O)n(C)c(=O)n2C	> 15 µM	> 15 µM
CCS(=O)(=O)Nc1ccc(C2=NN(C(=O)c3ccco3)C(c3ccc(F)cc3)C2)cc1 (stereo not given)	> 15 µM	6.12 µM
CN1CCN(c2nc(Nc3cccc(Cl)c3)c3cnn(-c4ccccc4)c3n2)CC1	3.88 µM	4.58 µM
O=[N+]([O-])c1ccc(NC(c2ccccn2)c2ccc3cccnc3c2O)cc1 (stereo not given)	4.78 µM	2.28 µM
Cc1ccccc1NC(=O)C1c2ccccc2C(=O)N2CCc3ccccc3C12 (stereo not given)	4.15 µM	> 15 µM
COc1ccc(Br)cc1C(Nc1ccccn1)c1cc(Cl)c2cccnc2c1O (stereo not given)	> 15 µM	2.95 µM
Oc1cccc(/C=C/c2ccc3cccc(O)c3n2)c1	> 15 µM	5.88 µM
CC(=O)NC(c1ccccc1)c1cc(Cl)c2cccnc2c1O (stereo not given)	> 15 µM	> 15 µM
CC(=O)NC(c1ccc(Cl)cc1)c1ccc2cccnc2c1O (stereo not given)	1.93 µM	2.15 µM
CCN(CC)c1ccc(/C=N\Nc2ncc(F)c(N3CCOCC3)n2)c(O)c1	1.53 µM	1.7 µM
O=C(Nc1nnc(-c2ccc3c(c2)CCCC3)o1)c1ccc(F)cc1	> 15 µM	> 15 µM
Oc1c(Cl)cc(Cl)cc1CN1CCN(c2ccccc2F)CC1	1.85 µM	0.861 µM
Cc1ccc(Cn2c(=O)c3ccccc3n3c(CCC(=O)N4CCC(C(N)=O)CC4)nnc23)cc1	> 15 µM	> 15 µM
Cc1ccc([N+](=O)[O-])cc1NC(=O)c1cc2ccccc2cc1O	0.825 µM	0.827 µM
COc1ccc(C2(O)C[N+](c3ccc(C)cc3)=C3SCCCN32)c(F)c1 (stereo not given)	> 15 µM	> 15 µM
CCCOc1ccc(-c2nonc2NC(=O)c2cccc(OCC)c2)cc1OCCC	> 15 µM	0.444 µM
O=C(C1CCCCC1)N(Cc1cccnc1)c1nc2ccc(F)cc2s1	> 15 µM	3.41 µM
N#Cc1ccc(C(=O)N(Cc2cccnc2)c2nc3c(F)cccc3s2)cc1	> 15 µM	> 15 µM
CCCN1CCN(CCCNC(=O)c2ccc3c(c2)sc2nc(-c4ccc(C)cc4)cn23)CC1	2.02 µM	4.65 µM
COc1cc(NC(=O)N2CCn3cccc3C2c2ccc(F)cc2)cc(OC)c1OC (stereo not given)	4.15 µM	3.75 µM
Cc1ccc(-c2nc(-c3ccc(Cl)cc3)no2)cc1	> 15 µM	> 15 µM
CC(Sc1ccc(Cl)cc1)C(=O)Nc1ccc(Br)cc1F (stereo not given)	> 15 µM	> 15 µM

Structure (SMILES)	EC50 (Plasmodium falciparum [1])	EC50 (Plasmodium falciparum [2])
CCOC(=O)c1cnc2c(C)cccc2c1NCCCN1CCOCC1	0.647 µM	1.43 µM
CCN(CC)CCNC(=O)c1ccc2c(c1)sc1nc(-c3ccc(C)cc3)cn12	1.65 µM	4.83 µM
COc1ccccc1C(=O)Nc1nnc(Cc2nc3ccccc3[nH]2)s1	> 15 µM	> 15 µM
Cc1ccccc1CN1C(=O)CSc2ccc(C(=O)NCCC(C)C)cc21	> 15 µM	> 15 µM
O=[N+]([O-])c1ccc(NC(=S)Nc2cc(C(F)(F)F)cc(C(F)(F)F)c2)cc1	1.64 µM	0.631 µM
Cc1cccc2sc(N(Cc3cccnc3)C(=O)c3ccc(C#N)cc3)nc12	> 15 µM	3.08 µM
COc1ccccc1Cn1ccnc1SCC(=O)Nc1cc(C)ccc1C	1.97 µM	> 15 µM
CCCCN1COc2ccc3c(-c4ccccc4)cc(=O)oc3c2C1	1.92 µM	0.598 µM
CCCCCCC(O)(c1ccc(F)cc1)C(CN1CCOCC1)c1ccccc1 (stereo not given)	3.18 µM	2.19 µM
CC1(C)N=C(N)N=C(N)N1c1ccc(F)cc1	0.095 µM	2.31 µM
C=CCN1C(=O)c2[nH]nc(-c3c(C)cc(C)cc3O)c2C1c1cccc(OC)c1 (stereo not given)	2.42 µM	1.42 µM
CCCC(=O)C1=C(c2cccc(OC)c2)N(C(=O)CCC)n2cnnc2S1	> 15 µM	> 15 µM
O=C(CSc1ccccc1[N+](=O)[O-])Nc1cccc(Br)c1	> 15 µM	> 15 µM
OCCNc1nc(Nc2ccc(Cl)c(Cl)c2)nc2ccccc12	> 15 µM	4.32 µM
CCc1n(CC(O)COc2ccccc2OC)c2ccccc2[n+]1CC (stereo not given)	> 15 µM	> 15 µM
Cc1ccccc1Nc1nc(NCc2ccco2)c2ccccc2n1	3.55 µM	> 15 µM
CCCCCOc1ccc(NC2=C(N3CCCCC3)C(=O)c3ccccc3C2=O)cc1	0.0689 µM	0.057 µM
CC(=O)c1ccc(Oc2c(F)c(F)nc(F)c2F)cc1	> 15 µM	> 15 µM
CCC(=O)NC(c1ccccc1Cl)c1ccc2cccnc2c1O (stereo not given)	2.19 µM	2.91 µM
O=C(c1cccc(C(F)(F)F)c1)N1CCN(c2ccc(N3CCCCCC3)nn2)CC1	> 15 µM	> 15 µM
CC1(C)CC(=O)C2=C(C1)OC(N)=C(C#N)C2c1ccc(F)cc1F (stereo not given)	> 15 µM	> 15 µM
